Patent US20260224563A1, “CRYSTALLINE FORMS OF 6-(3-((5-CHLORO-2-METHOXYPYRIDINE)-3-SULFONAMIDO)-2,6-DIFLUOROPHENYL)-N-METHYLIMIDAZO[1,5-A]PYRAZINE-1-CARBOXAMIDE AND METHODS FOR USING THE SAME” (HIBERCELL, INC., priority 2023, published 2026)
Structures can show the parent of a compound that is named as a salt. Where two headings read alike, the source gives them in different places. One block for each compound: values may come before it.

Assays:
[1] = Solubility testing in organic solvents and water (visual, room temperature); assay type: physicochemical
[2] = Solid-state stability (60° C./closed and 40° C./75% relative humidity open, up to seven days; HPLC purity, XRPD); assay type: physicochemical
Description: HPLC method for stability and solubility testing is listed below.
• Column: Ascentis® Express C18 4.6*150 mm*2.7 μm • Mobile Phase A: 0.05% trifluoroacetic acid in water • Mobile Phase B: Methanol • Gradient (T/B %): 0/10, 10/100, 13.5/10, 15/10 • Column Temperature: 40° C. • Detector: DAD; 220 nm • Flow rate: 1.0 mL/min • Injection volume: 1 μL • Concentration: 1 mg/mL • Run time: 15 minutes • Diluent: Methanol:Water 9:1 (v/v)
The solid-state stability of Form III of the potassium salt was performed using the following protocol: • (1) A sample of Form III of the potassium salt was placed at 60° C./closed and 40° C./75% relative humidity (open) conditions for up to seven days. At the onset of the test (day 0) and day 7 of the test, the sample was dissolved in a diluent to prepare a 1 mg/mL solution for HPLC purity analysis. The solid sample was analyzed by XRPD to assess the crystal form of each solid at day 7. […] The XRPD data confirmed the physicochemical stability of Form III of the potassium salt under both closed and open conditions. […]

[3] = Dynamic vapor sorption (DVS); assay type: physicochemical; conditions: for DVS weight gain: 25° C., listed as Form III of the potassium salt
Description: Moisture sorption/desorption data was collected on a Vsorp Dynamic Moisture Sorption Analyzer (ProUmid GmbH & Co. KG, Germany). The sample was placed into a tared sample chamber and automatically weighed.
• Equilibrium Condition: 0.01%/40 min • Time between weighing cycles: 10 minutes • Minimum time per climate cycle: 50 minutes • Maximum time per climate cycle: 2.0 hour • Balanced condition: 25° C. at 60% […] for 4 hours • Sample temperature: 25° C. • Adsorption: 70, 80, 90 • Desorption: 80, 70, 60, 50, 40, 30, 20, 10, 0 • Adsorption: 10, 20, 30, 40, 50, 60

[4] = Water activity study of the crystalline potassium salt forms (acetone/water suspension, XRPD); assay type: physicochemical; conditions: KF wt. %>0.19, 25-50° C., KF wt. %~0.1, 25° C. in acetone/water
Description: A water activity study of the potassium salt forms was conducted in two groups: (i) Form I and Form III of the potassium salt, and (ii) Form II and Form III of the potassium salt.
Each suspension was shaken at 700 rpm in a shaker at 25° C., 35° C., 45° C., and 50° C., and the sample was analyzed by XRPD.

[5] = Slurry study of potassium salt Form III in organic solvents and water (XRPD); assay type: physicochemical; conditions: for Result at 3 days (XRPD): slurry in THF
[6] = Pharmacokinetics of HC-7366 in male and female beagle dogs following IV and oral administration of HC-7366-K (plasma and urine, LC-MS/MS); assay type: in vivo, Beagle Dog; parameters: AUC(0-t)/D: unit not given here

Solubility ([1]; Acetone, listed as Form III of the Potassium Salt): ~0.5 mg/mL | Solubility ([1]; BuOH, 24 °C, organic solvent or mixture, thermodynamic from solid, BuOH, read-out: Solubility): < 0.1 mg/mL | Solubility ([1]; DCM, listed as Form III of the Potassium Salt): <0.1 mg/mL | Solubility ([1]; DMSO, 24 °C, organic solvent or mixture, thermodynamic from solid, DMSO, read-out: Solubility): > 180 mg/mL | Solubility ([1]; DMSO, listed as Form III of the Potassium Salt): >180 mg/mL | Solubility ([1]; EtOAc, listed as Form III of the Potassium Salt): <0.1 mg/mL | Solubility ([1]; EtOH, listed as Form III of the Potassium Salt): ~4 mg/mL | Solubility ([1]; H2O (water), listed as Form III of the Potassium Salt): ~1 mg/mL | Solubility ([1]; IPA, listed as Form III of the Potassium Salt): <0.1 mg/mL | Solubility ([1]; IPAc, listed as Form III of the Potassium Salt): <0.1 mg/mL | Solubility ([1]; MEK, listed as Form III of the Potassium Salt): <0.1 mg/mL | Solubility ([1]; MTBE, 24 °C, organic solvent or mixture, thermodynamic from solid, MTBE, read-out: Solubility): < 0.1 mg/mL | Solubility ([1]; MeCN, listed as Form III of the Potassium Salt): <0.1 mg/mL | Solubility ([1]; MeOH, listed as Form III of the Potassium Salt): >40 mg/mL | Solubility ([1]; MeOH, listed as Form III of the potassium salt): > 40 mg/mL | Solubility ([1]; THF, listed as Form III of the Potassium Salt): <0.1 mg/mL | Solubility ([1]; heptane, 24 °C, organic solvent or mixture, thermodynamic from solid, Heptane, read-out: Solubility): < 0.1 mg/mL | Purity (Area %) 220 nm ([2]; 0 day): 99.90 Area % | XRPD After 7 Days ([2]; 40° C./75% RH (open)): Unchanged | Purity (Area %) 220 nm ([2]; 40° C./75% RH (open), 7 days): 99.90 Area % | Purity (Area %) 220 nm ([2]; 60° C./closed, 7 days): 99.90 Area % | XRPD After 7 Days ([2]; 60° C./closed, 7 days): Unchanged | DVS weight gain ([3]; 0 to 80% relative humidity): around 0.18% | DVS weight gain ([3]; 0 to 90% relative humidity): ~0.23% | DVS weight gain ([3]; 60 to 80% relative humidity): around 0.13% | Relative stability of crystalline forms ([4]; versus Form I of the potassium salt): more stable | Relative stability of crystalline forms ([4]; versus Form II of the potassium salt): more stable | Result at 3 days (XRPD) ([5]; 25° C.): Potassium salt Form III | Result at 3 days (XRPD) ([5]; 50° C.): Potassium salt Form III | Result (XRPD) ([5]; slurry in Water, 25° C., 5 days, repeated aqueous slurry experiments): Potassium salt Form III (5 days)
SMILES: CNC(=O)c1ncn2cc(-c3c(F)ccc(NS(=O)(=O)c4cc(Cl)cnc4OC)c3F)ncc12 [Potassium salt Form III, 6-(3-((5-chloro-2-methoxypyridine)-3-sulfonamido)-2,6-difluorophenyl)-N-methylimidazo[1,5-a]pyrazine-1-carboxamide]
physical and chemical stability ([2]; both closed (60° C.) and open (40° C./75% RH) conditions for seven days): maintained physical and chemical stability | Hygroscopicity (DVS) ([3]; class by weight gain to 80% relative humidity): non-hygroscopic (non-hygroscopic may be defined as a <0.2% weight gain to 80% relative humidity)

AUC(0-t)/D ([6]; Female Beagle dog, IV 0.5 mg/kg, mean n = 3): 162284 | t1/2 ([6]; Male Beagle dogs, IV 0.5 mg/kg, HC-7366 in plasma, mean n = 3): 14 h | clearance ([6]; dog, plasma, male beagle dogs, intravenous 0.5 mg/kg, read-out: Clearance (CL)): 6 mL/h/kg | Vd ([6]; dog, plasma, male beagle dogs, intravenous 0.5 mg/kg, read-out: volume of distribution at steady state (Vss)): 0.107 L/kg | CL renal ([6]; dog, urine and plasma, female Beagle dogs, intravenous 0.5 mg/kg, read-out: Renal Clearance): 0.0066 mL/h/kg
SMILES: CNC(=O)c1ncn2cc(-c3c(F)ccc(NS(=O)(=O)c4cc(Cl)cnc4OC)c3F)ncc12 [HC-7366-K, 6-(3-((5-chloro-2-methoxypyridine)-3-sulfonamido)-2,6-difluorophenyl)-N-methylimidazo[1,5-a]pyrazine-1-carboxamide]
